In general, inhibition refers to how much of the control response was suppressed. The low end stands for little suppression, the high end for strong suppression.

Results on three compounds are retold here after patent publication US10927104B2, “Ether compounds and uses thereof” (BioTheryX, Inc., priority 2017, dated 2021).

Common to all, as to format: cell-based
One assay deals with MV-4-11 cells. The assay is described as follows: Cell viability assay (CellTiter-Glo), MV-4-11 proliferation. Particulars: Homo sapiens, MV4-11, 72 h, 3 days; for inhibition at 1 µM: compound at 1 μM; for inhibition at 10 µM: compound at 10 μM. How it is done: (§1) Molm-13 and MV-4-11 cells were cultivated in RPMI-1640 (10% FBS/1% pen-strep) and were plated in white walled 96-well plates at 20,000 cells/well.
(§2) Cells were treated with compound at the indicated concentration or DMSO (control) and the cultures were incubated for 3 days at 37° C. and 5% CO2. Following the incubation period, 100 μL of CellTiterGlow (CTG) reagent (CellTiter-Glo® Luminescent Cell Viability Assay, Promega (Madison, Wis.)) was added to each well. Following a 10 min incubation with shaking, luminescence was measured using a Victor Wallac Luminometer.
In general terms: ATP-based viability assays read luminescence as a measure of living cells.

The subject of the next assay is IL-2. The assay is described as follows: Anti-CD3-induced IL-2 secretion in PBMCs (Mesoscale). Particulars: Homo sapiens, PBMC, anti-CD3 stimulated PBMCs, 24 hr, vs DMSO control, read-out: IL-2 Fold Change; for fold induction at 0.1 µM: compound at 0.1 μM; for fold induction at 1 µM: compound at 1 μM. The procedure:
FIG. 4 represents Anti-CD3-induced IL-2 secretion in PBMCs. 1 μg/mL anti-CD3 (OKT-3) antibody in PBS coated onto 96-well plates overnight at 4° C. Approximately, 550,000 PBMCs were added to each well, followed by addition of DMSO only (control) or Compound 1. Induction was measured after 24 hrs as fold difference from the DMSO stimulated control.
(§3) Frozen primary blood mononuclear cells (PBMCs) were purchased from AllCells. Cells were quick thawed, washed once with RPMI-1640/10% FBS.
For the IL-2 analysis, 96 well plates were precoated with 1 μg/mL anti-human CD3 antibody (OKT3, eBioscience Inc.). After washing with PBS, Compound 1 was added (50 μL/well) followed by PBMCs diluted at 3-4 million cells/mL (150 μL/well). Plates were incubated for 24 hr and the supernatants collected for Mesoscale IL-2 analysis.
(§4) Compound activity was measured as fold difference from the DMSO control. IL-1β activity is shown in FIG. 1; IL-6 activity is shown in FIG. 2; TNFα activity is shown in FIG. 3; and IL-2 activity is shown in FIG. 4. Additional data for compounds (shown as percent inhibition) at 10 μM is shown in Table 1; at 1 μM in Table 2; and at 0.1 μM in Table 3.

For a further assay, the system named is IL-1β. The assay is described as follows: PBMC assay, LPS-induced IL-1β (Meso Scale). As to conditions: Homo sapiens, PBMCs, 100 ng/mL LPS 18-24 hrs; for inhibition at 0.1 µM: compound at 0.1 μM; for inhibition at 1 µM: compound at 1 μM. The procedure:
FIG. 1 represents the activity against IL-1-beta in peripheral blood mononuclear cells (PBMCs), plated in 96 well plates and pretreated with compound for 1 hour and then induced with 100 ng/mL LPS for 18-24 hrs. Cytokines in the media were measured according to MesoScale protocol. Negative control wells were treated with DMSO. Compound activity is measured as a percentage of LPS-induced activity.
as §3
(§5) 1% Penicillin/1% Streptomycin and plated in 96 well plates at 200,000 cells per well. Cells were pretreated with DMSO only, or Compound 1 for 1 hour and then induced with 100 ng/mL lipopolysaccharide (LPS) for 18-24 hrs. The supernatant was analyzed for IL-1 beta, IL-6, and TNFα, using Meso Scale assay according to manufacturer's protocol. The negative control wells were treated with DMSO.
as §4

For another assay, the system named is TNFα. The assay is described as follows: PBMC assay, LPS-induced TNFα (Meso Scale). As to conditions: Homo sapiens, PBMCs, 100 ng/mL LPS 18-24 hrs; for inhibition at 0.1 µM: compound at 0.1 μM; for inhibition at 1 µM: compound at 1 μM. How it is done:
FIG. 3 represents the activity against TNFα in peripheral blood mononuclear cells (PBMCs), plated in 96 well plates and pretreated with compound for 1 hour and then induced with 100 ng/mL LPS for 18-24 hrs. Cytokines in the media were measured according to MesoScale protocol. The negative control wells were treated with DMSO. Compound activity is measured as a percentage of LPS-induced activity.
as §3, §5, §4

For another assay, the system named is Molm-13 cells. The assay is described as follows: Cell viability assay (CellTiter-Glo), Molm-13 proliferation. Particulars: Homo sapiens, MOLM-13, 72 h, 3 days; for inhibition at 1 µM: compound at 1 μM. How it is done:
as §1, §2

Another assay concerns IL-6. The assay is described as follows: PBMC assay, LPS-induced IL-6 (Meso Scale). Particulars: Homo sapiens, PBMCs, 100 ng/mL LPS 18-24 hrs; for inhibition at 0.1 µM: compound at 0.1 μM; for inhibition at 1 µM: compound at 1 μM. How it is done: FIG. 2 represents the activity against IL-6 in peripheral blood mononuclear cells (PBMCs), plated in 96 well plates and pretreated with compound for 1 hour and then induced with 100 ng/mL LPS for 18-24 hrs. Cytokines were measured according to MesoScale protocol. Negative control wells were treated with DMSO. Compound activity was measured as a percentage of LPS-induced activity.
as §3, §5, §4

With `Cc1cnc(Nc2ccc(OCCCNC(=O)NCc3ccc4c(c3OCc3ccc(CN5CCOCC5)cc3)CN([C@H]3CCC(=O)NC3=O)C4=O)cc2)nc1Nc1cccc(S(=O)(=O)NC(C)(C)C)c1` [Compound 23], the inhibition at 1 µM worked out at 8% in the assay with MV-4-11 cells; 79% in the assay on IL-1β; 88% in the assay with TNFα; 30% in the assay on Molm-13 cells; 32% with IL-6. This compound showed an inhibition at 10 µM in the assay with MV-4-11 cells of 79%. Also, the fold induction at 0.1 µM with IL-2 is 0.9. Moreover, the fold induction at 1 µM in the assay with IL-2 is 1.3. The figures for the inhibition at 0.1 µM in the assay on IL-1β, with TNFα and with IL-6 were 35%, 48% and 23%, respectively.
For the compound `O=C1CCC[C@H](N2Cc3c(OCCc4ccc(CN5CCOCC5)cc4)cccc3C2=O)C(=O)N1` [Compound 26, (S)-3-(4-{2-[p-(Morpholinomethyl)phenyl]ethoxy}-2-isoindolinoyl)-2,7-azepanedione], the inhibition at 1 µM in the assay on MV-4-11 cells turned out to be 2%; in the assay on IL-1β, 81%; in the assay on TNFα, 87%; with Molm-13 cells it was 66%; with IL-6, 8%. Also, the inhibition at 10 µM in the assay with MV-4-11 cells worked out at 23%. The fold induction at 0.1 µM in the assay with IL-2 is 2.6. For the same compound, the fold induction at 1 µM with IL-2 stood at 2.7. Moreover, the inhibition at 0.1 µM with IL-1β was 78%; with TNFα, 82%; with Molm-13 cells (compound at 0.1 μM) it was 21%; in the assay with IL-6, 5%.
For `Cc1cnc(Nc2ccc(OCCCNC(=O)NCc3ccc4c(c3OCc3ccc(CN5CCOCC5)cc3)CN([C@H]3CCCC(=O)NC3=O)C4=O)cc2)nc1Nc1cccc(S(=O)(=O)NC(C)(C)C)c1` [Compound 27], the inhibition at 1 µM is 10% with MV-4-11 cells; 62% in the assay on IL-1β; 72% in the assay with TNFα; 37% in the assay with Molm-13 cells; 4% with IL-6. In addition, in the assay with MV-4-11 cells, the inhibition at 10 µM is 36%. The fold induction at 0.1 µM with IL-2 amounted to 1.3. The fold induction at 1 µM in the assay with IL-2 was 1.5. Also, the inhibition at 0.1 µM with IL-1β is 50%; in the assay with TNFα it was 60%; in the assay with IL-6, 5%.
